The record followed here is patent US10031127B2, “Method for separating aggregates of malignant cells and aggregates from stromal cells of a malignant tumour tissue sample” (Flacod GmbH, priority 2012, dated 2018).

Molecules are shown by their SMILES.

Test [1] relates to clusters of malignant cells and/or stromal cell clusters of malignant lung tumors (fractionated and unfractionated digestion products). Put plainly: chemosensitivity to cisplatin, colony formation on ECM-coated culture plates. It counts as cell-based. The note with it: 6000 nM cisplatin, 3 days incubation, most of the fractionated and unfractionated digestion products. The procedure:
(§1) Samples were freshly resected from malignant lung tumors of various histologies, then purified and minced. Tumor tissue samples of 5 to 10 mg per 1 mL were suspended in RPMI 1640 culture medium with an FBS content of 10%. These suspensions were subjected to a collagenase digestion, preferably using Clostridium histolyticum collagenase (230 CDU/mL) for a period of 4 to 5 hours at 36° C. to 37° C., preferably at 36.5° C. Next the digested product was centrifuged at 50×g, the supernatant was discarded and the pellet was dissolved and resuspended in 1 mL fresh culture medium. Each test preparation was transferred to a Petri dish and adjusted with culture medium to a concentration corresponding to 5 to 10 mg tumor sample wet weight per 1 mL culture medium.
(§2) The cell suspension of each test preparation (test run) was picked up with a 1 mL pipette tip (another aspiration device can also be used) and then discharged again, 4 to 5 times in succession, and thereby subjected to a treatment with hydrodynamic shearing forces. Next, with the help of an inverse microscope equipped with a phase contrast lens system, cell clusters of phenotypically the same cells were detected and each was transferred to a separate culture vessel using injection cannulas no. 23 (diameter 0.6 mm, length 60-80 mm) attached to 2 mL injection syringes. […]

Test [2] concerns isolated stromal cell clusters of malignant lung tumors. Description: chemosensitivity to cisplatin, isolated stromal cell clusters. It counts as cell-based. The note with it: isolated microscopically identified stromal cell clusters, in the absence of malignant cells; 3 days, 0-6000 nM cisplatin. The procedure: as §1, §2

Take `N.N.[Cl][Pt][Cl]` [cisplatin]: the “colony formation ex vivo in the presence of cisplatin” value in test [1] is recorded as “capable of forming colonies ex vivo even in the presence of 6000 nM cisplatin”. For the same molecule, in test [2], the “cisplatin resistance of stromal cell clusters” value is “often have cisplatin resistance even in the absence of malignant cells”.
